Values after ≈ are worked out from the molar mass of the structure shown. *1 amine or outer side, *2 acyl side, *3 side chain or, on linkers, in order; H or OH if unused. Where a SMILES comes first, the peptide text is derived from it. Bridges are numbered along the chain shown (N, C = ends). [ ]: non-standard residue; d: D form. The star is where a group is joined. hTyr(3S-OH,4S-OH,3'-OSO3H) = N[C@H](C(=O)O)[C@H](O)[C@@H](O)c1ccc(O)c(OS(=O)(=O)O)c1; Orn(4R-OH,5R-OH) = O=C([C@H](C[C@@H](O)[C@@H](O)N[*:3])N[*:1])[*:2]; Pro(3S-OH,4S-Me) = C[C@H]1CN[C@H](C(=O)O)[C@H]1O; X1 = CCCCCOc1ccc(-c2cc(-c3ccc(C(=O)*)cc3)no2)cc1; Gln(3R-OH) = NC(=O)C[C@@H](O)[C@H](N)C(=O)O; Hyp = O=C(O)[C@@H]1C[C@@H](O)CN1

Assay [1] concerns Aspergillus fumigatus. Kind of assay: Antifungal activity against Aspergillus fumigatus isolate after 24 hrs by CLSI method.
The test system of assay [2] is Aspergillus fumigatus. Kind of assay: Antifungal activity against Aspergillus fumigatus isolate after 48 hrs by CLSI method.

Regarding `C[C@@H]([C@H](N)C(=O)N[C@H](C(=O)O)[C@H]1O[C@@H](n2ccc(=O)[nH]c2=O)[C@H](O)[C@@H]1O)[C@H](O)c1ccc(O)cn1` [NIKKOMYCIN], the MIC in the assay on Aspergillus fumigatus [1] came out at 64 µg/mL (≈ 129 µM); against Aspergillus fumigatus [2], 128 µg/mL (≈ 258 µM).
As to `C[C@@H]1[C@H](O)[C@@H](C)/C=C/C=C/C=C/C=C/C=C/C=C/C=C/[C@H](O[C@@H]2O[C@H](C)[C@@H](O)[C@H](N)[C@@H]2O)C[C@@H]2O[C@](O)(C[C@@H](O)C[C@@H](O)[C@H](O)CC[C@@H](O)C[C@@H](O)CC(=O)O[C@H]1C)C[C@H](O)[C@H]2C(=O)O` (stereo in doubt) [AMPHOTERICIN B], the minimal inhibitory concentration (MIC) in the assay on Aspergillus fumigatus [1] and against Aspergillus fumigatus [2] was 0.5 µg/mL (≈ 0.541 µM) each time.
As for `CCCCCOc1ccc(-c2cc(-c3ccc(C(=O)N[C@H]4C[C@@H](O)[C@@H](O)NC(=O)[C@@H]5[C@@H](O)[C@@H](C)CN5C(=O)[C@H]([C@H](O)CC(N)=O)NC(=O)[C@H]([C@H](O)[C@@H](O)c5ccc(O)c(OS(=O)(=O)O)c5)NC(=O)[C@@H]5C[C@@H](O)CN5C(=O)[C@H]([C@@H](C)O)NC4=O)cc3)no2)cc1` [MICAFUNGIN] (X1-[Orn(4R-OH,5R-OH)]T[Hyp][hTyr(3S-OH,4S-OH,3'-OSO3H)][Gln(3R-OH)][Pro(3S-OH,4S-Me)]; lactam 1-C), the MIC with Aspergillus fumigatus [1] and in the assay on Aspergillus fumigatus [2] was at most 0.03 µg/mL each time.

By MIC is commonly meant the lowest concentration that inhibits growth of the organism.

These data come from ChEMBL document CHEMBL1145464, “Modeling the combination of amphotericin B, micafungin, and nikkomycin Z against Aspergillus fumigatus in vitro using a novel response surface paradigm” (2007).
